Key:
[1] = tested on: Ca leakage from sarcoplasmic reticulum; experiment: Ca leakage from sarcoplasmic reticulum in saponin-skinned papillary muscle fiber preparations (caffeine-induced tension as index); format: cell-based, Wistar rats; settings: MCC-135 10^-7 M to 10^-5 M, skinned fiber preparation
Method: Diabetic cardiomyopathy was induced in 7-week old Wistar rats by an intravenous injection of 40 mg/kg of Streptozotocin via each tail (purchased from Sigma, hereinafter may be referred to as “STZ”) (J. Exp. Med., 1979, 149: 623-631). Since a severe cardiac dysfunction is observed 5 to 6 months after the administration of STZ (Malone, J. I., Schocken, D. D., Morrison, A. D., Gilbert-Barness, E., Diabetic cardiomyopathy and carnitine deficiency. J-Diabetes-Complications. 1999, 13(2): 86-90), the rats were subjected to the experiments 7 months after the administration of STZ. The rats were sacrificed and the hearts of the rats were isolated 7 months after the administration of STZ. The following experiment was conducted according to the method of Kitada et al. (J. Pharmacol. Exp. Ther. 1987, 243: 633-638). Skinned fiber preparations were prepared by saponin treatments of papillary muscles of the hearts isolated from the rats 7 months after the administration of STZ and the control rats. A medium for the preparations was changed from Ca (calcium ion) free buffer solution to a solution of pCa 6.7 to have sarcoplasmic reticulum uptake a certain amount of Ca in the presence of ATP. […]

[2] = tested on: contractile protein system; experiment: Relation between Ca concentration and contractile force in saponin-skinned papillary muscle fibers under acidosis (pH 6.6); format: cell-based, Wistar rats; settings: for Hill n / Maximum Force / PCa50 / Resting Force: acidosis (pH6.6) + 1 μM MCC-135
Method: Diabetic cardiomyopathy model is prepared in a similar manner to that in Example 1. The rats 7 months after the administration of STZ were subjected to the experiments in a similar manner to that in Example 1. The rats were sacrificed and the hearts of the rats were isolated 7 months after the administration of STZ. The following experiment was conducted according to the method of Kitada et al. which is the same as that in the Example 1. Left ventricular papillary muscles were cut off from the isolated heart in an ice cooled Krebs-Henseleit solution, and contraction-relaxation function of the papillary muscles was measured by Magnus method. Some of the papillary muscles were applied to a functional analysis on a relation between various calcium ion (Ca) concentrations and contractile force by skinned fiber method with saponin treatment. Acidosis was induced by lowering the pH of the solution from 7.0 in normal to 6.6. A mode of change of relation between the various calcium ion (Ca) concentrations and the contractile forces in the presence or absence of MCC-135 was studied.

## Cc1ccc(N2CCNCC2)c(S(=O)(=O)O)c1.O [MCC-135, 5-methyl-2-(1-piperazinyl)benzenesulfonic acid monohydrate]
[1]; normal rats
  effect on Ca leakage from sarcoplasmic reticulum: had no effect
[1]; rats with diabetic cardiomyopathy (STZ, 7 months)
  effect on Ca leakage from sarcoplasmic reticulum: inhibited Ca leakage from the sarcoplasmic reticulum with diabetic cardiomyopathy in a concentration-dependant manner
[2]; diabetic cardiomyopathy
  effect on the action of acidosis on cardiac muscle: blocked the action of acidosis in the diabetic cardiomyopathy
[2]; normal hearts
  effect on the action of acidosis on cardiac muscle: had no effect on the action of acidosis on the normal hearts
[2]; normal rat
  Hill n: 3.17 ± 0.42
  Maximum Force: 0.371 ± 0.027 mN/mm^2
  PCa50: 5.43 ± 0.01
  Resting Force: 0 ± 0 n.s mN/mm^2
[2]; rat with cardiomyopathy
  Hill n: 2.12 ± 0.20
  Maximum Force: 0.286 ± 0.020**, *** mN/mm^2
  PCa50: 5.55 ± 0.07
  Resting Force: 0.000 ± 0.000**, *** mN/mm^2

Source: US20050124632A1, “Remedies and/or preventives for diabetic ischemic heart diseases” (priority 2001, published 2005)
